# Experimental data: patent US20240408093A1, “HETEROBIFUNCTIONAL COMPOUNDS AND THEIR USE IN TREATING DISEASE” (HALDA THERAPEUTICS OPCO, INC., priority 2022, published 2024)
# Assays:
# [1] = target: T1, EGFR T790M, L858R (amino acids 669-1011) (Homo sapiens, UniProt P00533, L858R/T790M); assay: KdELECT binding assay, EGFR T790M, L858R
# T1 construct: purchased Eurofins Discovery (KdELECT); host or cells: mammalian cells (HEK-293)
# Experimental: Exemplary compounds were tested for ability to bind to EGFR WT (amino acids 669-1011, Accession Number NP_005219.2) or EGFR T790M, L858R (amino acids 669-1011 Accession Number NP_005219.2) expressed from bacteria or mammalian cells, respectively. Compounds were tested using the KdELECT assay at Eurofins Discovery.
# Kinase-tagged T7 phage strains were prepared in an E. coli host derived from the BL21 strain. E. coli were grown to log-phase and infected with T7 phage and incubated with shaking at 32° C. until lysis. The lysates were centrifuged and filtered to remove cell debris. The remaining kinases were produced in HEK-293 cells and subsequently tagged with DNA for qPCR detection. Streptavidin-coated magnetic beads were treated with biotinylated small molecule ligands for 30 minutes at room temperature to generate affinity resins for kinase assays. The liganded beads were blocked with excess biotin and washed with blocking buffer (SeaBlock (Pierce), 1% BSA, 0.05% Tween 20, 1 mM DTT) to remove unbound ligand and to reduce non-specific binding. Binding reactions were assembled by combining kinases, liganded affinity beads, and test compounds in 1x binding buffer (20% SeaBlock, 0.17× PBS, 0.05% Tween 20, 6 mM DTT). Test compounds were prepared as 111× stocks in 100% DMSO. Kd values were determined using an 11-point 3-fold compound dilution series with three DMSO control points. All compounds for Kd measurements are distributed by acoustic transfer (non-contact dispensing) in 100% DMSO. The compounds were then diluted directly into the assays such that the final concentration of DMSO was 0.9%. All reactions performed in polypropylene 384-well plate. Each was a final volume of 0.02 mL. The assay plates were incubated at room temperature with shaking for 1 hour and the affinity beads were washed with wash buffer (1× PBS, 0.05% Tween 20). The beads were then re-suspended in elution buffer (1× PBS, 0.05% Tween 20, 0.5 μM nonbiotinylated affinity ligand) and incubated at room temperature with shaking for 30 minutes. The kinase concentration in the eluates was measured by qPCR.
# GSPT1 = target: T2, GSPT1 (Homo sapiens, UniProt P15170+Q96SW2); assay: GSPT1 HiBiT degradation assay; type: cell-based; conditions: HEK293 LgBiT GSPT1 HiBiT cells, 6 hours
# T2 construct: host or cells: HEK293 LgBiT / GSPT1 HiBiT CRISPR knock-in
# How it was run: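 HEK293 CRISPR knock-in cells expressing LgBiT and GSPT1-HiBiT were seeded at 1000 cells/well and, after 18-24 h, treated with titrated compound plus endurazine (0.5× final) at 37 °C. Luminescence read after 6 h; loss of signal reflects GSPT1 degradation, giving DC50.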
# KRAS G12C = KRAS G12C (Homo sapiens, UniProt P01116, G12C); assay: KRAS G12C nucleotide exchange assay (SOS1-mediated, HTRF); type: biochemical; design: GST-tagged KRAS G12C (amino acids 2-169); conditions: 1 hr pre-incubation
# How it was run: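 GST-tagged KRAS G12C (aa 2-169, 30 nM) pre-incubated 1 h at RT with compound (10-point, 3-fold dilution from 10 μM), then SOS1 (aa 564-1049, 20 nM) and GTP-DY-647P1 (0.15 μM) added. Exchange read by HTRF with anti-GST Tb antibody. IC50 from sigmoidal variable-slope fit.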
# T1 sequence (P00533 669-1011 T790M/L858R): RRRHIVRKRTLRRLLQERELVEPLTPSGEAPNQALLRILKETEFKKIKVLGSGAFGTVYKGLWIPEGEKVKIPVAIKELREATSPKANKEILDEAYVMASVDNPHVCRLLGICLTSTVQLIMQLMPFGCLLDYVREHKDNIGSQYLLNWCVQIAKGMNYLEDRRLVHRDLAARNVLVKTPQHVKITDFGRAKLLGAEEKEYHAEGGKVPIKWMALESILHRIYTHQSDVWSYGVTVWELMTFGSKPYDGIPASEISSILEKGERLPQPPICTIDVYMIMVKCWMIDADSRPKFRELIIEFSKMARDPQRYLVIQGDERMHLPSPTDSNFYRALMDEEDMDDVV
# Sequence of KRAS G12C (P01116 2-169 isoform P01116-2 G12C): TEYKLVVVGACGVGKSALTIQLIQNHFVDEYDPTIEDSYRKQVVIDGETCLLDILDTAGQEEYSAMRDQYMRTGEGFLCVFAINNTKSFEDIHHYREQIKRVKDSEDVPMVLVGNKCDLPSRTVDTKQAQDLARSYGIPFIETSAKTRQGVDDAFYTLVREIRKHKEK
# T2 sequence (P15170 whole entry): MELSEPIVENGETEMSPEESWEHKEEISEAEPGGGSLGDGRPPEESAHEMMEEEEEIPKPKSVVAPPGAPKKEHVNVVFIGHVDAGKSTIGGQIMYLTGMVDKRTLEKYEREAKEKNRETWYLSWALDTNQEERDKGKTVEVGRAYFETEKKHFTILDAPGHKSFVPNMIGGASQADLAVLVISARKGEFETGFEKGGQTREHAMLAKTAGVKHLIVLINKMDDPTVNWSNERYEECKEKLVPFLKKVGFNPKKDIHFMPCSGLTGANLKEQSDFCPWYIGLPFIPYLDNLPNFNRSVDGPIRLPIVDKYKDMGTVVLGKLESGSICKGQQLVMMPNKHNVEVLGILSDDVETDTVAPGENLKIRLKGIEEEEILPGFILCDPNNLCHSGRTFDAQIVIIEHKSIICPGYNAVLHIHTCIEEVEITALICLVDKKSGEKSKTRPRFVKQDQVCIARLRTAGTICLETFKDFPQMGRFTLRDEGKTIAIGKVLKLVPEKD
# T2 sequence (Q96SW2 whole entry): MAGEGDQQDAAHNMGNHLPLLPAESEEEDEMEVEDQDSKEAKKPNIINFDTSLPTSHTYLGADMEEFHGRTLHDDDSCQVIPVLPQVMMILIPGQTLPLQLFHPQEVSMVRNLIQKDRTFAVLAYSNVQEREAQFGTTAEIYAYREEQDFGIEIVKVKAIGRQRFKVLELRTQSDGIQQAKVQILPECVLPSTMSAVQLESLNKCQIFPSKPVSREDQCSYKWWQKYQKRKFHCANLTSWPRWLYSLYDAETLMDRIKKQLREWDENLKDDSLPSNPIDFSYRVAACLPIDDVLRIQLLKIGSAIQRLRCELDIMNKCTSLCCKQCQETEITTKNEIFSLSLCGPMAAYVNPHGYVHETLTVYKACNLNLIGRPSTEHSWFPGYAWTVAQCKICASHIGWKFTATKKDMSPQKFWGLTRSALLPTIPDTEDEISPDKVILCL
# T2 sequence (Q16531 whole entry partner): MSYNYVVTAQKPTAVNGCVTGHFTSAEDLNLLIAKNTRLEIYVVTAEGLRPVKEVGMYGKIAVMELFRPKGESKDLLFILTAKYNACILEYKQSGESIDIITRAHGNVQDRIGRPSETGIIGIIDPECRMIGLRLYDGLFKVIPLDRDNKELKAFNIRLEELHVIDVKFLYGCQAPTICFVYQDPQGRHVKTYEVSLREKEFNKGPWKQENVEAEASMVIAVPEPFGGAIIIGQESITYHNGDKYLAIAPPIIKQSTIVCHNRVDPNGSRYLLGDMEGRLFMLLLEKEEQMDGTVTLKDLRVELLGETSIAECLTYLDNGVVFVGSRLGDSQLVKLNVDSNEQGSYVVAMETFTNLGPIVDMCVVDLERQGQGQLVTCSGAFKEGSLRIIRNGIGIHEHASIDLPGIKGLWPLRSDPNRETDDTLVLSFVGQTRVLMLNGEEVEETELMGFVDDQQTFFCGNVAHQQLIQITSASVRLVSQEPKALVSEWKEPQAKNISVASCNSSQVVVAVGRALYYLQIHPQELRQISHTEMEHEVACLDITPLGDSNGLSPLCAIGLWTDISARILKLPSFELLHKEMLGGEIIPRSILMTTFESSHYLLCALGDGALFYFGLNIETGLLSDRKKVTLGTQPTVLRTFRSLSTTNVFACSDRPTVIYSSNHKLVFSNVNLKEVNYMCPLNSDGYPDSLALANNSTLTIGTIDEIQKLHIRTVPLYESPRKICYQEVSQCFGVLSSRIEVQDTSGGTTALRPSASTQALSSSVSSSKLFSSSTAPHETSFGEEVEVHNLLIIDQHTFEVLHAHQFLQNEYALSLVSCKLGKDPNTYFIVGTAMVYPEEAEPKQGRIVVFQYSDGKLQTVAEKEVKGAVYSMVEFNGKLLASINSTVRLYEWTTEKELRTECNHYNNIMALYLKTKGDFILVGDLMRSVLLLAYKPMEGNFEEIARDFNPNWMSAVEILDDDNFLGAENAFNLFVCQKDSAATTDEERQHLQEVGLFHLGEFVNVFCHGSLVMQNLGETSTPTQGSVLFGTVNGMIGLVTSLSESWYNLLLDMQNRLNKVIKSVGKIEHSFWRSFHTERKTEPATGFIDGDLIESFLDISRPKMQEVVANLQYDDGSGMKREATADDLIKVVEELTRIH
Structure (SMILES),Kd [1] [nM],DC50 (GSPT1) [nM],IC50 (KRAS G12C) [nM]
C=C(COc1ccc(Cl)cc1NC(=O)NCc1ccc2c(c1)CN(C1CCC(=O)NC1=O)C2=O)C(=O)N[C@@H]1CN(c2nc(Nc3cn(C)nc3OC)c3ncn(C)c3n2)C[C@H]1F (some centres unmarked) [Compound I-47],< 50,50 to 500,
C=C(COC(=O)N1CCN(c2nc(NCc3nc4cc(C)ccc4[nH]3)n3ncc(Br)c3n2)CC1)C(=O)N1C[C@H](COc2nc(Nc3cnn(C)c3)nc3[nH]cc(Cl)c23)[C@@H](OC)C1 [II-185],> 2500,,
C=C(CN1C(=O)CCC(N2Cc3cc(CNC(=O)Nc4ccc(C)c(Cl)c4)ccc3C2=O)C1=O)C(=O)Nc1cc(Nc2ncc(-c3cn(C)c4ccccc34)cn2)c(OC)cc1N(C)CCN(C)C (centres unmarked) [Compound I-87],< 50,50 to 500,
C=C(CN(C(=O)NCc1ccc2c(c1)CN(C1CCC(=O)NC1=O)C2=O)c1ccc(C)c(Cl)c1)C(=O)Nc1cc(Nc2ncc(-c3cn(C)c4ccccc34)cn2)c(OC)cc1N(C)CCN(C)C (centres unmarked) [Compound I-42],500 to 2500,> 2500,
C=C(COc1cc(-c2ccccn2)ccc1CNc1nc(N[C@H](CC)CO)nc2c1ncn2C(C)C)C(=O)N[C@@H]1CN(c2nc(Nc3cn(C)nc3OC)c3ncn(C)c3n2)C[C@H]1F [II-183],50 to 500,,
C=C(COc1cc(Cl)cc(NC(=O)NCc2ccc3c(c2)CN(C2CCC(=O)NC2=O)C3=O)c1)C(=O)Nc1cccc(Oc2nc(Nc3ccc(N4CCN(C)CC4)cc3)nc3ccsc23)c1 (centres unmarked) [Compound I-55],500 to 2500,50 to 500,
C=C(COc1cc(Cl)cc(NC(=O)NCc2ccc3c(c2)CN(C2CCC(=O)NC2=O)C3=O)c1)C(=O)N[C@@H]1CN(c2nc(Nc3cn(C)nc3OC)c3ncn(C)c3n2)C[C@H]1F (some centres unmarked) [Compound I-45],< 50,500 to 2500,
C=C(CN1CCN(c2nc(NCc3nc4cc(C)ccc4[nH]3)n3ncc(Br)c3n2)CC1)C(=O)Nc1cc(Nc2nccc(-c3cn(C)c4ccccc34)n2)c(OC)cc1N(C)CCN(C)C [II-188],< 50,,
C=C(CN1CCN(c2nc(NCc3nc4cc(C)ccc4[nH]3)n3ncc(Br)c3n2)CC1)C(=O)Nc1cccc(-c2cccc3cnc(Nc4ccc(N5CCN(CCO)CC5)c(F)c4F)nc23)c1 [II-191],500 to 2500,,
C=C(COc1cc(Cl)cc(NC(=O)NCc2ccc3c(c2)CN(C2CCC(=O)NC2=O)C3=O)c1)C(=O)Nc1cccc(-c2cccc3cnc(Nc4ccc(N5CCN(CCO)CC5)c(F)c4F)nc23)c1 (centres unmarked) [Compound I-61],50 to 500,50 to 500,
C=C(COc1cc(Cl)cc(NC(=O)NCc2ccc3c(c2)CN(C2CCC(=O)NC2=O)C3=O)c1)C(=O)Nc1cc(Nc2nccc(-c3cn(C)c4ccccc34)n2)c(OC)cc1N(C)CCN(C)C (centres unmarked) [Compound I-59],< 50,50 to 500,
C=C(COc1cc(Cl)cc(NC(=O)NCc2ccc3c(c2)CN(C2CCC(=O)NC2=O)C3=O)c1)C(=O)N1C[C@H](COc2nc(Nc3cnn(C)c3)nc3[nH]cc(Cl)c23)[C@@H](OC)C1 (some centres unmarked) [Compound I-54],> 2500,< 50,
C=C(COC(=O)n1c(CNc2nc(N3CCNCC3)nc3c(Br)cnn23)nc2cc(C)ccc21)C(=O)N1C[C@H](COc2nc(Nc3cnn(C)c3)nc3[nH]cc(Cl)c23)[C@@H](OC)C1 [Compound V-4],> 2500,,
C=C(COc1cc(Cl)cc(NC(=O)NCc2ccc3c(c2)CN(C2CCC(=O)NC2=O)C3=O)c1)C(=O)N1CCN(c2nc(OC[C@@H]3CCCN3C)nc3c2CCN(c2cccc4cccc(Cl)c24)C3)C[C@@H]1CC#N (some centres unmarked) [Compound I-35],,> 2500,< 100
C=C(COc1c(Cl)cccc1NC(=O)NCc1ccc2c(c1)CN(C1CCC(=O)NC1=O)C2=O)C(=O)Nc1cc(Nc2nccc(-c3cn(C)c4ccccc34)n2)c(OC)cc1N(C)CCN(C)C (centres unmarked) [Compound I-60],< 50,500 to 2500,
C=C(COc1cc(Cl)c(OC)cc1NC(=O)NCc1ccc2c(c1)CN(C1CCC(=O)NC1=O)C2=O)C(=O)N1CCN(c2nc(OC[C@@H]3CCCN3C)nc3c2CCN(c2cccc4cccc(Cl)c24)C3)C[C@@H]1CC#N (some centres unmarked) [Compound I-46],,500 to 2500,< 100
C=C(CN(C)c1cccc(NC(=O)NCc2ccc3c(c2)CN(C2CCC(=O)NC2=O)C3=O)c1)C(=O)N1CCN(c2nc(OC[C@@H]3CCCN3C)nc3c2CCN(c2cccc4cccc(Cl)c24)C3)C[C@@H]1CC#N (some centres unmarked) [Compound I-58],,> 2500,5000 to 10000
C=C(COC(=O)NCCCc1cc(Cl)cc(NC(=O)NCc2ccc3c(c2)CN(C2CCC(=O)NC2=O)C3=O)c1)C(=O)N1CCN(c2nc(OC[C@@H]3CCCN3C)nc3c2CCN(c2cccc4cccc(Cl)c24)C3)C[C@@H]1CC#N (some centres unmarked) [Compound I-74],,500 to 2500,< 100
C=C(COc1ccc(Cl)cc1NC(=O)NCc1ccc2c(c1)CN(C1CCC(=O)NC1=O)C2=O)C(=O)N1CCN(c2nc(OC[C@@H]3CCCN3C)nc3c2CCN(c2cccc4cccc(Cl)c24)C3)C[C@@H]1CC#N (some centres unmarked) [Compound I-52],,500 to 2500,< 100
C=C(COC(=O)NCc1cc(Cl)cc(NC(=O)NCc2ccc3c(c2)CN(C2CCC(=O)NC2=O)C3=O)c1)C(=O)N1CCN(c2nc(OC[C@@H]3CCCN3C)nc3c2CCN(c2cccc4cccc(Cl)c24)C3)C[C@@H]1CC#N (some centres unmarked) [Compound I-73],,50 to 500,< 100
